Measured values from US9296710B2, “Bicyclo (3.1.0) hexane-2, 6-dicarboxylic acid derivatives as mGlu2 receptor agonist” (Eli Lilly and Company, priority 2011, dated 2016).
Where a name gives a salt, the structure may show the parent alone.

Assays:
[1] = molecular target: T1, PepT1 (Homo sapiens, UniProt P46059); experiment: In Vitro PepT1 GlySar Inhibition Screen; format: cell-based; details: for GlySar uptake inhibition, mean values ± standard deviation (controls): negative and positive controls run in parallel, n=18-19; for inhibition at 5000 µM: prodrug at 5 mM, pH 6.0, PepT1 transiently transfected HeLa cells, 5 μM [14C]Gly-Sar and 20 μM cold Gly-Sar, read-out: Mean GlySar Uptake Inhibition %
T1 construct: expressed in transfected cells; host or cells: HeLa cells (ATCC), transient transfection with FUGENE6
T1 sequence (P46059 1-708): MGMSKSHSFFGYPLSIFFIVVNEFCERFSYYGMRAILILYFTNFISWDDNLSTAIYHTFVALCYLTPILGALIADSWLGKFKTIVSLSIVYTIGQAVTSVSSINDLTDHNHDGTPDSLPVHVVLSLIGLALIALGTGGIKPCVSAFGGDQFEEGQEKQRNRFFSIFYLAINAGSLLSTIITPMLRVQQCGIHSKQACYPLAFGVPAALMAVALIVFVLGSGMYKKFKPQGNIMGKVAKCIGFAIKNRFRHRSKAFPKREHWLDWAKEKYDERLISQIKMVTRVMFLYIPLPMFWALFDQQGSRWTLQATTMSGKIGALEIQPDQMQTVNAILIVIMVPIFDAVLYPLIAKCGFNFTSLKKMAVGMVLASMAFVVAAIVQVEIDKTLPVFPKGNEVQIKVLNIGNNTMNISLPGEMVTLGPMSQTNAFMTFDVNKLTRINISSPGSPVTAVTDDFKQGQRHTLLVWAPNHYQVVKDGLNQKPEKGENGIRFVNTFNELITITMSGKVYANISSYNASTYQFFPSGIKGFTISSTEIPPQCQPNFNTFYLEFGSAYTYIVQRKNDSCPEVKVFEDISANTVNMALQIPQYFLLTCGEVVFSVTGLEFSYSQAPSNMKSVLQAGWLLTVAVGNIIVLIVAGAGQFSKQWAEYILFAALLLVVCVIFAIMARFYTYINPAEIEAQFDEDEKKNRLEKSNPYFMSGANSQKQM
Description: PepT1 assays are established to examine the ability of the amino acid prodrug compounds to interact with the intestinal absorption transporter PepT1.
HeLa cells, derived from human cancer cells, (American Type Culture Collection) are grown in Hyclone Medium (Invitrogen, Cat# SH30243) containing 10% fetal bovine serum (FBS), 0.1 mM non essential amino acids (NEAA), and 100 units/mL penicillin with 100 μg/mL streptomycin at 37° C. in a 5% CO2 humidified atmosphere. The cell line is used for up to 40 passages and then discarded. Frozen cells in 1 mL vials are thawed in water bath for 1-2 minutes and added to 5 mL of cell medium at 37° C. Each of the T-flasks is provided with 8.5 mL of the fresh medium and 1.5 mL of the cell stock. Cells are passaged twice during a week. […] Each new flask receives a combination of 8.5 mL of fresh medium and 1.5 mL of cell stock, in order to obtain 1:6 cell dilution. Cells are incubated at 37° C., until ready for the uptake study.
Cells that are 70-80% confluent in the T-flasks are plated 1 day prior to the transfection procedure. The flask with the cell stock is treated with PBS-EDTA and trypsin to detach the cells, and transfection medium is used from this point. Transfection medium consists of Dulbecco's Modified Eagle Medium (DMEM)+NEAA. To each well, 0.5 mL of the cell mixture is added (1.3×10^5 is the desired cell concentration) and the cells are incubated at 37° C. overnight. Twenty four hours before the assay, cells are transfected with PEPT1. Transfection mixture is prepared by mixing 600 μL of serum free transfection medium, 18 μL of FUGENE6® (Roche Diagnostics), and 11 μg of the PepT1 DNA. The transfection reagent-DNA complex is incubated for 20 minutes and 24 μL of the reagent-DNA complex is added to each well.
Inhibition of PEPT1-mediated [glycyl-1-2-^14C]Glyclysarcosine (GlySar) uptake activity is measured in the cells cultured in the 24-well plates 24-hours post transfection as previously published (Zhang et al. 2004. J. Pharm. Exper Ther. 310:437-445). To measure the ability of a compound of the present invention to inhibit the uptake of [^14C]Gly-Sar, prodrug compounds are incubated with 80 to 90% confluent PepT1 transiently transfected HeLa cells at 5 mM in pH 6.0 uptake medium in the presence of 5 μM [^14C]Gly-Sar (Moravek Biochemicals) and 20 μM cold Gly-Sar. Uptake media consists of 140 mM NaCl, 5.4 mM KCl, 1.8 mM CaCl2, 0.8 mM MgSO4, 5 mM Glucose, 25 mM tris(hydroxymethyl)aminomethane buffer (TRIS). The solution is then brought to pH 6.0 using 2-(N-morpholino)ethanesulfonic acid. The incubation volume is 500 μL and is performed at room temperature for 3 minutes. To stop the uptake at the conclusion of the incubation time, the uptake media is aspirated off of the cell monolayer and 500 μL of ice cold PBS added to the well. The cells are washed 3 times with 500 μL of room temperature PBS without Ca^+2 and Mg^+2. The cells are then lysed with 300 μL of 1% TRITON® X100 H2O solution. A 200 μL aliquot is removed and radioactivity is determined by liquid scintillation counting to measure the [^14C]Gly-Sar present in each of the incubation wells. A no inhibitor control is established and the percent inhibition of each prodrug is calculated with respect to this control.

[2] = tested on: PCP-induced hyperlocomotor activity in mice; experiment: Reversal of Phencyclidine (PCP)-Induced Hyperlocomotor Activity in Mice; format: in vivo, mouse; details: Mus musculus, i.p. administration, 30 minutes prior to 7.5 mg/kg PCP
Description: This assay for Reversal of Phencyclidine (PCP)-Induced Hyperlocomotor Activity in Mice is run substantially as the Reversal of Phencyclidine (PCP)-Induced Hyperlocomotor Activity in Rats assay provided above, using mice instead of rats and with the changes noted below.
Motor activity is monitored by placing individual male, ICR (CD-1), (Harlan, Indianapolis, Ind.) mice in transparent, plastic shoe-box cages of the dimensions 45×25×20 cm, with 0.5 cm depth of wood chips as bedding, and plastic lid on top of the cage. Motor monitors (Kinder Scientific) consist of a rectangular rack of 12 photobeams arranged in an 8×4 formation, (or a high density grouping of 22 in a 15×7 pattern) at a height of 2.5 cm. The shoe box cage is placed inside of these racks, with the racks on a 3 foot high tabletop in an isolated room. A compound of the present invention is dosed (intraperitoneal route, non-prodrug) usually within a range of 0.3-30 mg/kg; though higher doses may be used, 30 minutes prior to a 7.5 mg/kg challenge dose of phencyclidine (PCP). On the test day, mice are placed in the test cage and allowed to acclimate for 45 minutes prior to PCP challenge; mice are monitored for an additional 60 minutes following PCP administration.
Power analyses have determined that 7-8 mice per group are needed to have appropriate statistical power for detecting treatment differences (power=0.8).

[3] = molecular target: T2, human mGlu2 receptor (Homo sapiens, UniProt Q14416); experiment: Human mGlu2 Agonist FLIPR Assay; format: cell-based; details: for Emax: percent stimulation relative to maximal glutamate response (100 μM glutamate), read-out: Relative % Efficacy
T2 construct: expressed in transfected cells; host or cells: AV-12 cells (Syrian hamster fibroblasts), co-transfected with rat EAAT1 and Galpha15
T2 sequence (Q14416 19-872): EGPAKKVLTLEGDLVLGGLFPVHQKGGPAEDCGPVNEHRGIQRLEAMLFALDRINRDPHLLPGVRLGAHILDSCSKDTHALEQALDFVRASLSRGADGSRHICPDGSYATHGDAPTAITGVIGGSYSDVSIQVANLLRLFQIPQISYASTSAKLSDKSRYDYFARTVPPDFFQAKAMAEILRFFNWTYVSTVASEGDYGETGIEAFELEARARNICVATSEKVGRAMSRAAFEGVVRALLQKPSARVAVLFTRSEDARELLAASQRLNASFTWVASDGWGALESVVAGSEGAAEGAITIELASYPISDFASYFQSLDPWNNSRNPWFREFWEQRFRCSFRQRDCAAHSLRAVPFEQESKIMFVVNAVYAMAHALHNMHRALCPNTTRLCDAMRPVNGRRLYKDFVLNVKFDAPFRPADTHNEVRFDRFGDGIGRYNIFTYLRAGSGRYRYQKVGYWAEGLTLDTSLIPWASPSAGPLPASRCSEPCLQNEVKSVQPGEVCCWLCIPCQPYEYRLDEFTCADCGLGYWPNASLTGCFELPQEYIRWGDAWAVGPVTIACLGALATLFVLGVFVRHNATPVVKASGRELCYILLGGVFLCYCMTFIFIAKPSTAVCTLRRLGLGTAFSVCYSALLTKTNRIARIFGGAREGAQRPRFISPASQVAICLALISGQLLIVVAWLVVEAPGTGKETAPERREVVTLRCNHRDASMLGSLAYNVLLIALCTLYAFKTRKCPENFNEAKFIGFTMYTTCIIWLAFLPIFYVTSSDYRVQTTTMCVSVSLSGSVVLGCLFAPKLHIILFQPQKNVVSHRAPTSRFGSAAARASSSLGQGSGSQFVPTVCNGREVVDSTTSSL
Description: AV-12 cell lines, derived from Syrian Hamster fibroblasts and stably expressing the human mGlu2 receptor and co-transfected with the rat glutamate transporter EAAT 1 (Excitatory Amino Acid Transporter 1) and the Gα15 subunit, are used for these studies. The expression of Gα15 allows Gi-coupled receptors to signal through the phospholipase C pathway, resulting in the ability to measure receptor activation by a fluorometric calcium response assay. The cell lines are maintained by culturing in Dulbecco's Modified Eagle's Medium (DMEM) with high glucose and pyridoxine hydrochloride supplemented with 5% dialyzed fetal bovine serum, 1 mM sodium pyruvate, 10 mM HEPES [4-(2-hydroxyethyl)-1-piperazineethanesulfonic acid], 1 mM of L-glutamine, and 5 μg/mL blasticidin (all media are purchased from Invitrogen). Confluent cultures are passaged biweekly using an enzyme-free dissociation solution (Chemicon S-004-B).
Intracellular calcium levels are monitored before and after the addition of compounds using a Fluorometric Imaging Plate Reader (FLIPR®, Molecular Devices). The assay buffer is comprised of Hank's Buffered Salt Solution (HBSS; Sigma) supplemented with 20 mM HEPES. […] The dye solution is removed and replaced with fresh assay buffer (50 μL per well). […] Results are analyzed using PRISM® v4.03 (GraphPad Software). […] Exemplified compounds of the present invention are solubilized as 10 mM stocks in 0.1N NaOH and stored at −20 C. They are diluted through a three-fold dilution series into assay buffer. After taking an initial 5-sec fluorescent read on the FLIPR® instrument, a compound of the present invention is added to the cell plate (50 μL per well). Data are collected every second for the first 30 seconds and then every 3 seconds for a total of 90 seconds in order to detect agonist activity. The maximal response is defined as that induced by ECmax (100 μM glutamate). The compound effect is measured as maximal minus minimal peak heights in relative fluorescent units (RFUs) corrected for basal fluorescence measured in the absence of glutamate. Determinations are carried out using single plates. Agonist effects are quantified as percent stimulation induced by compound alone relative to the maximal glutamate response. All data are calculated as relative EC50 values using a four-parameter logistic curve fitting program (ACTIVITY BASE® v5.3.1.22).

[4] = tested on: immobility in forced swim test in mice; experiment: Forced Swim Test in Rodents (mice); format: in vivo, mouse; details: intraperitoneal dosing 60 min prior to testing
Description: In this assay, mechanisms with purported antidepressant-like activity decrease immobility in a brief inescapable forced swim episode.
The forced-swim test was conducted in mice (male, NIH-Swiss mice, 20-25 g, Harlan Sprague-Dawley, Indianapolis, Ind.). Mice are placed in clear plastic cylinders (diameter 10 cm; height: 25 cm) filled to 6 cm with 22-25° C. water for six min. The duration of immobility is recorded during the last 4 min of a six-minute trial. The compounds of Examples 2, 3, 8, 11, and 12 are tested following intraperitoneal dosing, 60 min prior to testing. Imipramine is used as a positive control for these studies. Compounds are formulated in a water vehicle, with minimal NaOH added. The amount of time spent immobile (defined as movements only necessary to keep the subject's head above water) is the dependent measure and recorded by an observer blinded to the drug treatment of the subjects. Data are analyzed by post-hoc Dunnett's test with alpha level set at 0.05.

Row | Emax [3] | inhibition at 5000 µM [1] | Compound | ED50 [2] | other results
1 |  |  | CC1=C(C(=O)O)N2C(=O)[C@@H](NC(=O)[C@H](N)c3ccc(O)cc3)[C@H]2SC1 [Cefadroxil, reference compound] |  | GlySar uptake inhibition, mean values ± standard deviation (controls) [1]: 53.2±13.2%
2 | 78.5% |  | Cl.N[C@@]1(C(=O)O)C[C@@H](Sc2nnc(C(F)(F)F)[nH]2)[C@H]2[C@H](C(=O)O)[C@H]21 [Example 2, (1R,2S,4R,5R,6R)-2-Amino-4-(5-trifluoromethyl-1H-[1,2,4]triazol-3-ylsulfanyl)-bicyclo[3.1.0]hexane-2,6-dicarboxylic acid hydrochloride] | 14.4 mg/kg | 
3 |  |  | Nc1nnc(S[C@@H]2C[C@@](N)(C(=O)O)[C@@H]3[C@@H](C(=O)O)[C@@H]32)[nH]1 [Example 3, (1R,2S,4R,5R,6R)-2-Amino-4-(5-amino-[1,3,4]triazol-2-ylsulfanyl)-bicyclo[3.1.0]hexane-2,6-dicarboxylic acid] | 17.1 mg/kg | ED60 (60% of the amount of immobility relative to vehicle controls) [4]: < 3 mg/kg
4 | 92.1% |  | N[C@@]1(C(=O)O)C[C@H](Sc2n[nH]c(C(F)(F)F)n2)[C@H]2[C@H](C(=O)O)[C@H]21 [Example 12, (1R,2S,4S,5R,6R)-2-Amino-4-[[5-(trifluoromethyl)-1H-1,2,4-triazol-3-yl]sulfanyl]bicyclo[3.1.0] hexane-2,6-dicarboxylic acid hydrochloride] |  | 
5 |  | 53.9% | C[C@H](N)C(=O)N[C@@]1(C(=O)O)C[C@@H](Sc2nnc(C(F)(F)F)[nH]2)[C@H]2[C@H](C(=O)O)[C@H]21 [Example 16, (1R,2S,4R,5R,6R)-2-[[(2S)-2-Aminopropanoyl]amino-4-[[5-(trifluoromethyl)-1H-1,2,4-triazol-3-yl]thio]bicyclo[3.1.0]hexane-2,6-dicarboxylic acid hydrochloride] |  | 
6 |  | 46.7% | NCC(=O)N[C@@]1(C(=O)O)C[C@H](Sc2nnc[nH]2)[C@H]2[C@H](C(=O)O)[C@H]21 [Example 22, (1R,2S,4S,5R,6R)-2-[(-2-Aminoacetyl)amino]-4-(4H-1,2,4-triazol-3-ylsulfanyl)bicyclo[3.1.0]hexane-2,6-dicarboxylic acid hydrochloride] |  | 
7 |  | 47.1% | CC(C)C[C@H](N)C(=O)N[C@@]1(C(=O)O)C[C@H](Sc2nnc[nH]2)[C@H]2[C@H](C(=O)O)[C@H]21 [Example 24, (1R,2S,4S,5R,6R)-2-(L-leucylamino)-4-(4H-1,2,4-triazol-3-ylsulfanyl)bicyclo [3.1.0]hexane-2,6-dicarboxylic acid hydrochloride] |  | 
8 |  |  | NCC(=O)O [Glycine, reference compound] |  | GlySar uptake inhibition, mean values ± standard deviation (controls) [1]: 10.1±9.5%

Row | Compound | Emax [3] | inhibition at 5000 µM [1] | ED50 [2] | other results
9 | Cl.N[C@@]1(C(=O)O)C[C@@H](Sc2cn[nH]n2)[C@H]2[C@H](C(=O)O)[C@H]21 [Example 1, (1R,2S,4R,5R,6R)-2-Amino-4-(2H-[1,2,3]triazol-4-ylsulfanyl)-bicyclo[3.1.0]hexane-2,6-dicarboxylic acid hydrochloride] | 92.6% |  | 18.4 mg/kg | EC50 ([3]; hMGLUR2 FLIPR assay, AV-12 cells expressing human mGlu2, calcium response, read-out: Relative EC50): 0.046 µM
